Ends that are not written are not given here. glycan = not defined here
Columns and labels:
[1] = test system: normal human bladder epithelial cells; experiment: 3H-thymidine incorporation cell proliferation assay; type: cell-based
Description: (§1) Cell proliferation was measured by ^3H-thymidine incorporation into explanted normal human bladder epithelial cells, as previously described (Keay et al., 2004; Keay et al., 1996). Briefly, purified lyophilized synthetic APF was resuspended in acetonitrile/distilled water (1:1), diluted in serum-free MEM (containing only glutamine and antibiotics/antimycotics), and applied to the cells; cell controls received acetonitrile/distilled water diluted in serum-free MEM alone. Cells were then incubated at 37° C. in a 5% CO2 atmosphere for 48 hours. The cell contents harvested and methanol-fixed onto glass fiber filter paper, and the amount of radioactivity incorporated determined. Significant inhibition of 3H-thymidine incorporation was defined as a mean decrease in counts per minute of greater than 2 standard deviations from the mean of control cells for each plate.

[2] = test system: CKAP4/p63; experiment: Western blot of CKAP4/p63 protein expression after siRNA electroporation; type: cell-based, human; settings: normal bladder epithelial cells, electroporation with siRNA; FIG. 5A
Description: Solubilized high affinity APF-binding bladder epithelial cell proteins were prepared as described above. Solubilized bladder epithelial cell membrane proteins were prepared by rinsing cells in the culture flasks with ice cold PBS, then scraping the cells into ice-cold extraction buffer (20 mM Tris/HCL, pH 7.4, containing 50 μg/ml PMSF, 2 μg/ml aprotinin, 100 μM tosyl-lysine-chloromethyl-ketone, 1 μM pepstatin A, and 1 μg/ml diisopropylfluorophosphate). The cell slurry was then vortexed until homogeneous, and centrifuged at 4° C. for 10 minutes at 14,000 rpm. Supernatant was removed, and the pelleted membrane fraction was washed once with ice cold extraction buffer, repelleted, and proteins were solubilized using ice cold extraction buffer containing 1% Triton X-100. Solubilized total cell proteins were extracted into ice cold RIPA buffer containing 1.0% NP40, as previously described (Keay et al., 2003). Protein concentration of solubilized protein samples was measured using a Folin reagent-based protein assay kit (Bio-Rad). […]

[3] = target: T1, CKAP4/p63 (Homo sapiens, UniProt Q07065); experiment: Sensitivity of siRNA-electroporated normal bladder epithelial cells to APF (thymidine incorporation); type: cell-based; settings: electroporation with siRNA, FIG. 5B
T1 construct: endogenous in cells; host or cells: explanted primary normal human bladder epithelial cells
T1 sequence (Q07065 1-602): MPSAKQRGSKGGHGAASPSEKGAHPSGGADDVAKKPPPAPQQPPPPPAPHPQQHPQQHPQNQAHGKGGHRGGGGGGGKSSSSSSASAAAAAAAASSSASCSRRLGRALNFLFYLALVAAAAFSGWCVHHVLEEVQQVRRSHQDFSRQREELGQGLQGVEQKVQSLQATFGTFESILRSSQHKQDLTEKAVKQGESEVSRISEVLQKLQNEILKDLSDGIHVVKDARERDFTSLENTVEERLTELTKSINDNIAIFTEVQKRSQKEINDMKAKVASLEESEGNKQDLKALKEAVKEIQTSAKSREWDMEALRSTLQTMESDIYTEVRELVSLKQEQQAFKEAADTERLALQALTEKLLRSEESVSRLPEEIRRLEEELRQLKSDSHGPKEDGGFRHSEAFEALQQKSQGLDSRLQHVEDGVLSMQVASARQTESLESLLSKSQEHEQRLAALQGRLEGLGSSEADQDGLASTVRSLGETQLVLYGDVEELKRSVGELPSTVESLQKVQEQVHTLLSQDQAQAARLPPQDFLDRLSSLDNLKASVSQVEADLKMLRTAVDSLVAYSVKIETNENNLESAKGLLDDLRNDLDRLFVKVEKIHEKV
Description: as §1, with “plate. Double stranded siRNA corresponding to nucleotides 594-616 ([NT] sense strand; SEQ ID NO:5) of CKAP4/p63 (NM-006825) and a scrambled double stranded negative control siRNA ([NT] sense strand; SEQ ID NO:13) were prepared by preincubating single-stranded sense and anti-sense strands prepared with double A overhangs in serum-free MEM medium at 37° C. for 1 hour. […]” for “plate.”

[4] = test system: normal human bladder epithelial cells; settings: bladder epithelial cell proliferation; background statement; cited from earlier work
[5] = target: T2, cytoskeleton-associated protein 4/p63 (CKAP4/p63) (human, UniProt Q07065 1-602); experiment: cell-based or functional assay
T2 sequence: T1 sequence (Q07065 1-602)

Which “antiproliferative activity as compared to the parent synthetic GalNAcβ1-3Gal-APF congener” value ([1]; primary normal bladder epithelial cells) does the source give for “biotinylated synthetic APF: APF biotinylated on the C-terminal lysine residue, carrying Galβ1-3GalNAcα-O-threonine (TVPAAVVVAK)” here?
Its value is “approximately 80%”.

For “5′-AAUUCUGUAUGCUA CCUGUAGAA-3′ sense strand [scrambled siRNA, reference compound]”, which “CKAP4/p63 protein expression relative to beta actin” value [2] is on record?
Its value is “little or no change”.

What about the “decrease in sensitivity of the cells to APF” value [3] of the same molecule?
Its value is “no decrease in sensitivity to APF”.

Which “potency of APF (EC50)” value [4] does the source give for “sialoglycopeptide inhibitor of bladder epithelial cell proliferation; nonapeptide TVPAAVVVA (SEQ ID NO:1) glycosylated on N-terminal threonine [APF, Sialic acid-galactose-N-acetylgalactosamine-threonine-valine-proline-alanine-alanine-valine-valine-valine-alanine]” here?
Its value is “picomolar range”.

What does the source list for “5′-AACUUUUGAGUCCAUCUUGAGAA-3′ sense strand [double-stranded siRNA for CKAP4/p63]”?
CKAP4/p63 protein expression relative to beta actin [2]: decreased protein expression of CKAP4/p63 relative to beta actin; decrease in sensitivity of the cells to APF [3]: approximately one thousand-fold

With “rhodamine-labeled APF: synthetic APF glycopeptide with C-terminal lysine labelled with 5(6)-Rhodamine B isothiocyanate (TVPAAVVVAK)” as the molecule, how does the “antiproliferative activity relative to synthetic, unlabeled APF” value ([1]; normal bladder epithelial cells) read?
Its value is “approximately 85%”.

B1: synthetic APF (antiproliferative factor) (peptide)
peptide: T(glycan)VPAAVVVA
modifications: reading uncertain; also: exact glycoform not given here
With B1 as the molecule, how does the “sensitivity of the cells to APF after siRNA knockdown of CKAP4/p63 (3H-thymidine incorporation)” value [5] read?
Its value is ~1000 fold.
